According to patent US20150315218A1, “SALTS OF PRODRUGS OF PIPERAZINE AND SUBSTITUTED PIPERIDINE ANTIVIRAL AGENTS” (Bristol-Myers Squibb Company, priority 2004, published 2015):
Counter-ions that a name gives are not always drawn. Like-named read-outs stand apart in the source and are kept apart here.

Columns and labels:
[1] = target: T1, human placental alkaline phosphatase (ALP) (Homo sapiens, UniProt P05187); assay: Hydrolysis of prodrug in human placental ALP solutions; type: in vitro ADME; settings: human placental ALP solution, 37°C, 120 min, read-out: t1/2 (min) of prodrug disappearance
T1 construct: To study the hydrolysis of lab in a purified form of human ALP, Iab was incubated in human placental ALP solutions; host or cells: human placenta (inferred from the name and from 'ALP derived from humans')
Method: (§1) Solid human placental ALP was obtained from Sigma (P-3895, St. Louis, Mo.). […] Solutions of 100 and 10 units/L were obtained by serial dilution. Iab was incubated in the 10, 100 and 1000 units/L solutions (n=2) at 37° C. for 2 hr. The starting concentration of Iab in the incubation was 10 μM. Aliquots of 100 μL samples were taken at pre-determined times and added into K2EDTA microtainers followed by the addition of 200 μL of acetonitrile.
as §1, with “Ibb” for “Iab”
as §1, with “Icb” for “Iab”, “acetonitrile. The supernatant was analyzed for both Icb and IVe by LC/MS/MS.” for “acetonitrile.”

human hepatocytes = assay: Hydrolysis of prodrug in hepatocytes (human); type: in vitro ADME; settings: human hepatocytes, qualitative
Method: The in vitro intrinsic clearance of Ibb in hepatocytes (Clint) was calculated as follows: Clint(μL/min/million cells)=Rate/CE where Rate is the rate of metabolism in hepatocytes (pmol/min/million cells), and CE is the concentration of Ibb in the incubation. The in vitro intrinsic clearance of Icb in hepatocytes (Clint) was calculated as follows: Clint(μL/min/million cells)=Rate/CE where Rate is the rate of metabolism in hepatocytes (pmol/min/million cells), and CE is the concentration of Icb in the incubation.

physchem = settings: aqueous solution, thermodynamic from solid
[2] = Aqueous / crystalline solubility; settings: aqueous solution
[3] = Stability of prodrug in fresh EDTA blood (dog); settings: dog blood, 37°C, 60 min (Iab) or 90 min (Ibb, Icb)
[4] = Stability of prodrug in fresh EDTA blood (human); settings: Human EDTA blood
[5] = Stability (hydrolysis) of prodrug in fresh serum (rat); settings: Rat Serum

T1 sequence (P05187 23-506 limits assumed): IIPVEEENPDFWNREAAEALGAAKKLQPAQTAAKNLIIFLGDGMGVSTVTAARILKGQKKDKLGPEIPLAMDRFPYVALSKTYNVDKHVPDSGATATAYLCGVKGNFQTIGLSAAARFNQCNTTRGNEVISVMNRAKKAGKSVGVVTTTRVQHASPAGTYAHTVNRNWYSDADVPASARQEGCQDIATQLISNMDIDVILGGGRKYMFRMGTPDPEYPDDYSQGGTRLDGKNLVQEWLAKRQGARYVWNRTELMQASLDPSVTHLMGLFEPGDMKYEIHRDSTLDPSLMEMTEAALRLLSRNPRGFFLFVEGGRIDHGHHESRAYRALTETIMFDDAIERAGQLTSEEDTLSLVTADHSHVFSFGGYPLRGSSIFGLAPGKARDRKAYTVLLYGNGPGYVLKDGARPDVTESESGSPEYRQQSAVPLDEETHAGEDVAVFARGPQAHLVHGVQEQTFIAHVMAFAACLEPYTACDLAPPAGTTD

half-life at 10 μM ([1]; pH 7.5, ALP Activity 10 Units/L): 186 min
half-life at 10 μM ([1]; pH 7.5, ALP Activity 100 Units/L): 14 min
half-life at 10 μM ([1]; pH 7.5, ALP Activity 1000 Units/L): 1.4 min
hydrolysis in the presence of hepatocytes (human hepatocytes): hydrolyzed
solubility (physchem; aqueous buffer): > 12000 µg/mL
solubility (physchem; pH 1.4, simulated gastric fluid): 220 µg/mL
conversion of prodrug to parent in blood containing EDTA [3]: approximately 6%
Iab / IVa Formed ([4]; 0 min): 11 µM
Iab / IVa Formed ([4]; 15 min): 11 µM
Iab / IVa Formed ([4]; 30 min): 7.1 µM
Iab / IVa Formed ([4]; 45 min): 9.8 µM
Iab / IVa Formed ([4]; 60 min): 9.8 µM
Iab / IVa Formed ([5]; 37°C, 0 min): 6.8 µM
Iab / IVa Formed ([5]; 15 min): 5.8 µM
Iab / IVa Formed ([5]; 30 min): 5.4 µM
Iab / IVa Formed ([5]; 45 min): 4.9 µM
Iab / IVa Formed ([5]; 60 min): 4.3 µM
Iab / IVa Formed ([5]; 90 min): 3.3 µM
SMILES: COc1cnc(OC)c2c1c(C(=O)C(=O)N1CCN(C(=O)c3ccccc3)CC1)cn2COP(=O)(O)O [Iab, {3-[(4-benzoylpiperazin-1-yl)(oxo)acetyl]-4,7-dimethoxy-1H-pyrrolo[2,3-c]pyridin-1-yl}methyl dihydrogen phosphate, L-lysine salt (1:1)]
concentration of aqueous solutions prepared for in vivo toxicology studies [2]: > 100 mg/mL
